pIC50: −log10 of the molar value. Converted amounts (≈) assume the structure as drawn.
What was measured:
in vitro [1] = details: dog, MDCK
in vitro [2] = details: mouse, peritoneal macrophages
Description: (§1) Cytotoxicity against mouse peritoneal Macrophage cells assessed as reduction in cell viability incubated for 3 days by fluorimetry

cells = details: Homo sapiens, MRC-5 SV2, 72 h
Description: (§2) Cytotoxicity against human MRC5 SV2 cells assessed as reduction in cell viability incubated for 3 days by fluorimetry

Macrophage = experiment: cells; details: Mus musculus, 72 h
Description: as §1

in vitro [3] = details: human, liver microsomes
Description: Metabolic stability in human liver microsomes assessed as intrinsic clearance at 0.5 uM incubated for 30 mins by LC-MS/MS analysis

in vitro [4] = details: human, MRC5 SV2 cells
Description: as §2

in vitro [5] = details: mouse, liver microsomes
Description: Metabolic stability in mouse liver microsomes assessed as intrinsic clearance at 0.5 uM incubated for 30 mins by LC-MS/MS analysis

Leishmania infantum = experiment: microbe, parasite or virus in culture; details: for pIC50: MHOM/MA(BE)/67/ITMAP263, 120 h; for IC90: MHOM/MA(BE)/67/ITMAP263, in Mus musculus, 120 h
Description: Antileishmanial activity against amastigote stage of Leishmania infantum MHOM/MA(BE)/67/ITMAP263 infected in mouse peritoneal macrophage assessed as parasite growth inhibition incubated for 5 days by Giemsa staining based assay

physchem [6] = details: PBS buffer, pH 2
Description: Kinetic solubility of compound in PBS buffer at pH 2

in vitro [7] = details: dog, MDCK; remark: listed apart in the source
Description: Apparent permeability across basolateral to apical side in MDCK cells

physchem [8] = details: PBS buffer, pH 7.4
Description: Kinetic solubility of compound in PBS buffer at pH 7.4

[9] = tested on: Trypanosoma brucei rhodesiense; experiment: microbe, parasite or virus in culture; details: STIB900, 72 h
Description: Antiprotozoal activity against Trypanosoma brucei rhodesiense STIB900 trypomastigotes incubated for 72 hrs by resazurin dye based fluorimetric analysis

in vitro [10] = details: human, MRC5 SV2 cells; remark: listed apart in the source
Description: Selectivity index, ratio of IC50 for human MRC5 SV2 cells to IC50 for Trypanosoma cruzi Tulahuen CL2 amastigotes infected in human MRC5 SV2 cells

Trypanosoma cruzi = experiment: microbe, parasite or virus in culture; details: Tulahuen CL2, MRC-5 SV2, 168 h
Description: Antitrypanosomal activity against Trypanosoma cruzi Tulahuen CL2 amastigotes infected in human MRC5 SV2 cells incubated for 7 days by chlorophenol red beta-D-galactopyranoside substrate based spectrophotometric assay

Trypanosoma brucei = experiment: microbe, parasite or virus in culture; details: Squib 427, 72 h
Description: Antitrypanosomal activity against Trypanosoma brucei Squib 427 assessed as reduction in parasite growth incubated for 72 hrs by resazurin dye based fluorimetric analysis

in vitro [11] = details: PAMPA
Description: Effective permeability of compound by PAMPA assay

in vitro [12] = details: human, MRC5 SV2 cells; remark: listed apart in the source
Description: Selectivity index, ratio of IC50 for human MRC5 SV2 cells to IC50 for Trypanosoma brucei Squib 427

in vitro [13] = details: mouse, peritoneal macrophages; remark: listed apart in the source
Description: Selectivity index, ratio of IC50 for mouse peritoneal macrophage to IC50 for Leishmania infantum MHOM/MA(BE)/67/ITMAP263 infected in mouse peritoneal macrophage

in vitro [14] = details: human, MRC5 SV2 cells; remark: listed apart in the source
Description: Selectivity index, ratio of IC50 for human MRC5 SV2 cells to IC50 for Trypanosoma brucei rhodesiense STIB900 trypomastigotes

physchem [15] = details: buffer, pH 7.4
Description: Lipophilicity, logD of compound at pH 7.4 by HPLC analysis

in vitro [16] = details: mouse, liver microsomes; remark: listed apart in the source
Description: Metabolic stability in mouse liver microsomes assessed as fraction unbound at 0.5 uM incubated for 30 mins by LC-MS/MS analysis

CC(C)c1cc(C(=O)N2CCCC(c3cc4ncccc4[nH]3)C2)on1 (stereo not given)
Papp A→B (in vitro [1]): 29.4 ×10⁻⁶ cm/s | IC90 at 72 h (in vitro [2]): 32 to 64 µM | pIC50 (cells): 4.19 | pIC50 (Macrophage): 4.19 to 4.49 | CLint scaled at 0.5 h, 0.5 µM (in vitro [3]): 67.8 mL/min/kg | microsomal CLint at 0.5 h, 0.5 µM (in vitro [3]): 37 µL/min/mg | IC90 at 72 h (in vitro [4]): 64 µM | CLint scaled at 0.5 h, 0.5 µM (in vitro [5]): 1600 mL/min/kg | microsomal CLint at 0.5 h, 0.5 µM (in vitro [5]): 560 µL/min/mg | pIC50 (Leishmania infantum): 4.19 to 4.49 | IC90 (Leishmania infantum): 32 to 64 µM | solubility kinetic (physchem [6]): > 67.3 µg/mL | Papp B→A (in vitro [7]): 33.2 ×10⁻⁶ cm/s | solubility kinetic (physchem [8]): 60.4 µg/mL (≈ 178 µM) | pIC50 [9]: 4.42 to 4.49 | IC90 [9]: 32 to 58.7 µM | selectivity ratio (in vitro [10]): 8.25 to 22.1 | pIC50 (Trypanosoma cruzi): 5.41 to 5.54 | IC90 (Trypanosoma cruzi): 7.61 to 24.3 µM | pIC50 (Trypanosoma brucei): 4.26 to 4.49 | IC90 (Trypanosoma brucei): 32 to 64 µM

CN(C(=O)c1ccccc1)c1cccc(-c2cc3ncccc3[nH]2)c1
Papp (in vitro [11]): 2.78 ×10⁻⁶ cm/s | IC90 at 72 h (in vitro [2]): 59.7 µM | pIC50 (cells): 4.58 | pIC50 (Macrophage): 4.34 | selectivity ratio (in vitro [12]): 0.849 | CLint scaled at 0.5 h, 0.5 µM (in vitro [3]): 83.7 mL/min/kg | microsomal CLint at 0.5 h, 0.5 µM (in vitro [3]): 50.6 µL/min/mg | IC90 at 72 h (in vitro [4]): 60.9 µM | CLint scaled at 0.5 h, 0.5 µM (in vitro [5]): 5840 mL/min/kg | microsomal CLint at 0.5 h, 0.5 µM (in vitro [5]): 1200 µL/min/mg | pIC50 (Leishmania infantum): 4.43 | IC90 (Leishmania infantum): 60.5 µM | pIC50 [9]: 5.04 | IC90 [9]: 35.5 µM | selectivity ratio (in vitro [10]): 3.59 | selectivity ratio (in vitro [13]): 0.707 | pIC50 (Trypanosoma cruzi): 5.14 | IC90 (Trypanosoma cruzi): 64 µM | pIC50 (Trypanosoma brucei): 4.50 | IC90 (Trypanosoma brucei): 59.1 µM | selectivity ratio (in vitro [14]): 2.89 | logD (physchem [15]): 3.3 | fraction unbound at 0.5 h, 0.5 µM (in vitro [16]): 0.653

O=C(c1cc(C(F)(F)F)no1)N1CCCC(c2cc3nc(NCc4ccccc4)ccc3[nH]2)C1 (stereo not given)
Papp (in vitro [11]): 0.239 ×10⁻⁶ cm/s | IC90 at 72 h (in vitro [2]): 29.9 µM | pIC50 (cells): 5.16 | pIC50 (Macrophage): 4.65 | selectivity ratio (in vitro [12]): 0.894 | CLint scaled at 0.5 h, 0.5 µM (in vitro [3]): 1870 mL/min/kg | microsomal CLint at 0.5 h, 0.5 µM (in vitro [3]): 149 µL/min/mg | IC90 at 72 h (in vitro [4]): 13.6 µM | pIC50 (Leishmania infantum): 5.20 | IC90 (Leishmania infantum): 23.6 µM | pIC50 [9]: 5.30 | IC90 [9]: 13 µM | selectivity ratio (in vitro [10]): 3.23 | selectivity ratio (in vitro [13]): 1.07 | pIC50 (Trypanosoma cruzi): 5.67 | IC90 (Trypanosoma cruzi): 64 µM | pIC50 (Trypanosoma brucei): 5.10 | IC90 (Trypanosoma brucei): 14.8 µM | selectivity ratio (in vitro [14]): 1.4 | logD (physchem [15]): 4.4 | fraction unbound at 0.5 h, 0.5 µM (in vitro [16]): 0.0857

CC(C)c1cc(C(=O)N2CC=C(c3cc4ncccc4[nH]3)CC2)on1
Papp (in vitro [11]): 1.54 ×10⁻⁶ cm/s | Papp A→B (in vitro [1]): 14.6 ×10⁻⁶ cm/s | IC90 at 72 h (in vitro [2]): 64 µM | pIC50 (cells): 4.19 | pIC50 (Macrophage): 4.19 | selectivity ratio (in vitro [12]): 1.74 | CLint scaled at 0.5 h, 0.5 µM (in vitro [3]): 119 mL/min/kg | microsomal CLint at 0.5 h, 0.5 µM (in vitro [3]): 23 to 59.2 µL/min/mg | IC90 at 72 h (in vitro [4]): 64 µM | CLint scaled at 0.5 h, 0.5 µM (in vitro [5]): 2650 mL/min/kg | microsomal CLint at 0.5 h, 0.5 µM (in vitro [5]): 398 to 446 µL/min/mg | pIC50 (Leishmania infantum): 4.38 to 4.55 | solubility kinetic (physchem [6]): > 67.3 µg/mL | Papp B→A (in vitro [7]): 15.3 ×10⁻⁶ cm/s | solubility kinetic (physchem [8]): 10.4 µg/mL (≈ 31 µM) | pIC50 [9]: 4.81 to 5.10 | IC90 [9]: 36.4 to 49.5 µM | selectivity ratio (in vitro [10]): 30.1 to 31.8 | selectivity ratio (in vitro [13]): 2.32 | pIC50 (Trypanosoma cruzi): 5.67 to 5.70 | IC90 (Trypanosoma cruzi): 3.79 to 15.4 µM | pIC50 (Trypanosoma brucei): 4.41 to 4.44 | IC90 (Trypanosoma brucei): 58.8 to 63.5 µM | selectivity ratio (in vitro [14]): 4.14 to 8.02 | logD (physchem [15]): 3.23

O=C(c1ccc(F)cc1)N1CCCC(c2cc3ncc(Cl)cc3[nH]2)C1 (stereo not given)
Papp (in vitro [11]): 10.6 ×10⁻⁶ cm/s | IC90 at 72 h (in vitro [2]): 64 µM | pIC50 (cells): 4.46 | pIC50 (Macrophage): 4.19 | selectivity ratio (in vitro [12]): 2.16 | CLint scaled at 0.5 h, 0.5 µM (in vitro [3]): 62.2 mL/min/kg | microsomal CLint at 0.5 h, 0.5 µM (in vitro [3]): 44.6 µL/min/mg | IC90 at 72 h (in vitro [4]): 64 µM | CLint scaled at 0.5 h, 0.5 µM (in vitro [5]): 970 mL/min/kg | microsomal CLint at 0.5 h, 0.5 µM (in vitro [5]): 235 µL/min/mg | pIC50 (Leishmania infantum): 4.73 | IC90 (Leishmania infantum): 50.4 µM | pIC50 [9]: 5.23 | IC90 [9]: 13.9 µM | selectivity ratio (in vitro [10]): 1.2 | selectivity ratio (in vitro [13]): 1.9 | pIC50 (Trypanosoma cruzi): 4.54 | IC90 (Trypanosoma cruzi): 59.5 µM | pIC50 (Trypanosoma brucei): 4.79 | IC90 (Trypanosoma brucei): 32.4 µM | selectivity ratio (in vitro [14]): 5.94 | logD (physchem [15]): 3.82 | fraction unbound at 0.5 h, 0.5 µM (in vitro [16]): 0.775

O=C(c1ccccc1)N1CCCC(c2cn3nc(Cl)ccc3n2)C1 (stereo not given)
Papp (in vitro [11]): 23.6 ×10⁻⁶ cm/s | IC90 at 72 h (in vitro [2]): 64 µM | pIC50 (cells): 4.19 | pIC50 (Macrophage): 4.19 | selectivity ratio (in vitro [12]): 1.37 | CLint scaled at 0.5 h, 0.5 µM (in vitro [3]): > 61.7 mL/min/kg | microsomal CLint at 0.5 h, 0.5 µM (in vitro [3]): 56.9 µL/min/mg | IC90 at 72 h (in vitro [4]): 64 µM | CLint scaled at 0.5 h, 0.5 µM (in vitro [5]): > 772 mL/min/kg | microsomal CLint at 0.5 h, 0.5 µM (in vitro [5]): 242 µL/min/mg | pIC50 (Leishmania infantum): 4.19 | IC90 (Leishmania infantum): 64 µM | pIC50 [9]: 5.11 | IC90 [9]: 14.5 µM | pIC50 (Trypanosoma cruzi): 4.19 | IC90 (Trypanosoma cruzi): 64 µM | pIC50 (Trypanosoma brucei): 4.32 | IC90 (Trypanosoma brucei): 64 µM | selectivity ratio (in vitro [14]): 8.19 | logD (physchem [15]): 3.18

O=C(c1cc(C2CC2)no1)N1CCCC(c2cc3ncccc3[nH]2)C1 (stereo not given)
Papp (in vitro [11]): 3.17 ×10⁻⁶ cm/s | IC90 at 72 h (in vitro [2]): 64 µM | pIC50 (cells): 4.19 | pIC50 (Macrophage): 4.19 | CLint scaled at 0.5 h, 0.5 µM (in vitro [3]): 39.5 mL/min/kg | microsomal CLint at 0.5 h, 0.5 µM (in vitro [3]): 33.8 µL/min/mg | IC90 at 72 h (in vitro [4]): 64 µM | CLint scaled at 0.5 h, 0.5 µM (in vitro [5]): 1610 mL/min/kg | microsomal CLint at 0.5 h, 0.5 µM (in vitro [5]): 467 µL/min/mg | pIC50 (Leishmania infantum): 4.43 | IC90 (Leishmania infantum): 64 µM | pIC50 [9]: 4.38 | IC90 [9]: 64 µM | selectivity ratio (in vitro [10]): 15.8 | selectivity ratio (in vitro [13]): 1.73 | pIC50 (Trypanosoma cruzi): 5.39 | IC90 (Trypanosoma cruzi): 13.8 µM | pIC50 (Trypanosoma brucei): 4.19 | IC90 (Trypanosoma brucei): 64 µM | selectivity ratio (in vitro [14]): 1.56 | logD (physchem [15]): 2.86 | fraction unbound at 0.5 h, 0.5 µM (in vitro [16]): 0.926

Source: ChEMBL document CHEMBL4342426, “Structure-activity relationship of 4-azaindole-2-piperidine derivatives as agents against Trypanosoma cruzi” (Bioorg Med Chem Lett, 2020)
